Consider 1 molecule from paper PMC3665789 (PLoS ONE, 2013).

In test [1] the test system is HIV-1 BaL (R5). The conditions noted are these: read-out: EC50 (µM ± SEM), PBMCs, p24 Ag ELISA.
For test [2], the system named is HSV-2 strain G. The test is described as follows: Time-of-drug-addition study, HSV-2. The test is classed as cell-based. The settings on record: HEL cells; LabyA1 19 µM, ACV 35 µM; after 3 days. Here is the method: TOA experiments for HSV-2 were performed identically as the viral replication assays, but each compound separately (LabyA1 or ACV) was added together with the virus (0 h) or after 2 h post-infection. The reference compound was added at least 100 times its EC50-value, as obtained in the HEL cell line (Table 3).

In test [3] the test system is HIV-1 NL4.3^2G12res. (X4). The settings on record: read-out: EC50 (µM ± SEM); MT-4 cells; NL4.3 resistant to mAb 2G12; MTS/PES.
Test [4] relates to HIV-1 IIIB (X4). The settings on record: read-out: EC50 (µM ± SEM), MT-4 cells, MTS/PES method.
The subject of test [5] is HSV-1 wild-type RV-174 (clinical isolate). The conditions noted are these: HEL cells; HSV-1 RV-174; CPE.
In test [6] the test system is laboratory-adapted HIV strains.
Test [7] has as its system HIV-induced cell-cell syncytia formation (HUT-78/IIIB and SupT1 cells). The test is described as follows: Giant cell cocultivation assay (HUT-78/IIIB + SupT1). The class given is cell-based, HIV-1. Here is the method:
The cocultivation experiments were performed as described previously. In brief, LabyA1 was diluted in cell culture medium and 100 µl was added in 96-well plate (BD, Falcon) along with the SupT1 T cells (1×10^5 cells/50 µl). The same amount of persistently HIV-infected HUT-78/IIIB cells were seeded and incubated at 37°C for 24 h. The next day, giant cell formation was scored microscopically and in addition the depletion of the CD4^+ SupT1 cells was measured by flow cytometry.
The depletion of the target CD4^+ SupT1 T cells in the cocultivation assays was measured using PE-conjugated […] (BD Biosciences). The cells were incubated for 30 minutes at room temperature with anti-CD28-PE. After several washing steps, the cells were fixed with a 1% paraformaldehyde solution and analyzed by flow cytometry.

Test [8] has as its target T1, R5 HIV-1 gp120 YU2 (Human immunodeficiency virus type 1 group M subtype B, UniProt P35961).
T1 construct: Recombinant gp120 proteins from X4 HIV-1 IIIB strain (ImmunoDiagnostics Inc., Woburn, MA) and from R5 HIV-1 strains ADA and YU2; purchased ImmunoDiagnostics Inc
The test is described as follows: Surface plasmon resonance. The test is classed as binding. Here is the method: (§1) Recombinant gp120 proteins from X4 HIV-1 IIIB strain (ImmunoDiagnostics Inc., Woburn, MA) and from R5 HIV-1 strains ADA and YU2 (ImmunoDiagnostics Inc.) were covalently immobilized on a CM5 sensor chip in 10 mM sodium acetate, pH 4.0, using standard amine coupling chemistry. […] A reference flow cell was used as a control for non-specific binding and refractive index changes. […] Samples (in duplicate) were injected for 2 minutes at a flow rate of 45 µl/min and the dissociation was followed for 4 minutes. Several buffer blanks were used for double referencing. The CM5 sensor chip surface was regenerated with a single injection of 50 mM NaOH. A DMSO concentration series was included to eliminate the contribution of DMSO to the measured response. […] The experimental data were fit using the 1∶1 binding model Biacore T200 Evaluation software 1.0 to determine the binding kinetics.
In general terms: SPR reads the build-up and loss of mass on a sensor chip optically.

Test [9] addresses T2, X4 HIV-1 gp120 IIIB (Human immunodeficiency virus type 1 group M subtype B, UniProt P04578).
T2 construct: Recombinant gp120 proteins from X4 HIV-1 IIIB strain; purchased ImmunoDiagnostics Inc., Woburn, MA
Description: Surface plasmon resonance. The class given is binding. Here is the method: as §1

Test [10] relates to HIV. The conditions noted are these: read-out: anti-HIV activity EC50 range; range over all HIV strains in cell cultures.
The test system of test [11] is HSV-2 wild-type G (reference strain). The conditions noted are these: HEL cells; HSV-2 G; CPE.
Test [12] concerns HIV-1 DJ259 (clinical isolate; R5). The conditions noted are these: PBMCs; DJ259, group M subtype C; p24 Ag ELISA. A general note: An ELISA detects its analyte on a solid surface through an enzyme-linked reagent.

Structures are written as SMILES. Read-outs that look alike come from different tables or passages of the source.

For the molecule `C/C=C1\NC(=O)[C@H](Cc2ccccc2)NC(=O)[C@@H]2CCCN2C(=O)[C@H](C(C)C)NC(=O)[C@H](Cc2c[nH]c3ccccc23)NC(=O)[C@]23CSC[C@H](NC1=O)C(=O)N[C@H](C(=O)O)CSSC[C@H](NC(=O)[C@@H]1CSC[C@]4(C[C@H](N)C(=O)N[C@@H](CC(N)=O)C(=O)N[C@@H](C)C(=O)N4)C(=O)N[C@@H](C(C)C)C(=O)N[C@@H](Cc4c[nH]c5ccccc45)C(=O)N[C@@H](CCC(=O)O)C(=O)N1)C(=O)N[C@@H](C2)C(=O)N[C@@H]([C@@H](C)O)C(=O)NCC(=O)N3` [LabyA1, labyrinthopeptin A1], the EC50 in test [1] is 3.3 ± 0.4 µM; in test [3], 2.2 ± 0.3 µM; in test [4], 2 ± 0.6 µM; in test [5] it was 2700 ± 1000 nM; in test [6] (read-out: EC50 range, range over cell-line adapted HIV strains (Table 1)) it was 790 to 3300 nM; in test [6] (read-out: Median EC50, median over laboratory-adapted HIV strains in MT-4, PBMCs, MDM), 1900 nM. Also, the EC50 in test [7] (24 h coculture, CD28 flow cytometry, read-out: EC50, survival of SupT1 T cells in coculture with HUT-78/IIIB cells) is 2500 nM; in test [10], 700 to 3300 nM; in test [11], 320 ± 50 nM; in [12], 940 ± 430 nM. Further, the “HSV-2 induced CPE, compound given simultaneously with virus (0 h)” value in test [2] was “no CPE or viral replication were observed”. For the same molecule, the “antiviral activity, compound added after 2 h adsorption period” value in [2] is recorded as “significant decrease”. In addition, the “activity in cell-cell fusion assay” value in [7] (0.96 µM, light microscopy) is listed as “no activity was observed”. Also, the giant cell formation result in test [7] (4.8 µM, light microscopy) was “some giant cells were formed”; in [7] (24 µM, light microscopy), “completely inhibited”. Also, the Kd – broadly, the free concentration of one partner at which half of the binding sites on the other are occupied at equilibrium, for simple one-to-one binding – in [8] was found to be 9800 ± 1600 nM; in test [9] it was 7800 ± 2100 nM.
